Ends that are not written are not given here.
Legend:
[1] = test system: PC-3 cells; conditions: PC-3 cells treated with ERK pathway inhibitor; cited from earlier work
[2] = test system: 22Rv1; test: PSA and Runx 2II gene expression in 22Rv1 cells (real time RT-PCR); type: cell-based, human; conditions: for PSA gene expression / Runx 2II gene expression: 22Rv1, 8 hours stimulation, OC 80 ng/ml, arginine 30 mM, R1881 100 nM; for PSA gene expression: FIG. 4A; for Runx 2II gene expression: FIG. 4B
Procedure: (§1) Human tissue cDNAs were obtained from Clontech Laboratories, Inc. Total RNA from human prostate cancer cells was isolated with RNeasy Mini Kit (Qiagen Inc., Valencia, Calif.). RT-PCR was done using two-step RNA PCR (Perkin-Elmer). In separate reactions, 2.0 μg of DNase-treated total RNA was reverse-transcribed into cDNA with the respective reverse primers specified below and Moloney murine leukemia virus reverse transcriptase (Gibco Life Technologies, Inc.). Reactions were carried out at 42° C. for 60 min followed by 94° C. for 5 min and 5° C. for 5 min. The products of first-strand cDNA synthesis were directly amplified by PCR using AmpliTaq DNA polymerase (Perkin-Elmer). The primers for human GPRC6A are as follows: hGPRC6A.F203: […] (SEQ ID NO: 1) and hGPRC6A.R630: […] (SEQ ID NO: 2). For housekeeping gene control G3PDH gene, G3PDH.F143: […] (SEQ ID NO: 3) and G3PDH.R1050: […] (SEQ ID NO: 4). For quantitative real time RT-PCR assessment of PSA and Runx 2II genes expression, total RNA was isolated and reverse transcribed from 22Rv1 cells that stimulated with or without OC (80 ng/ml), arginine (30 mM) and R1881 (100 nM) as previously described using specific primer sets. The primers sequences were PSA. For: […] (SEQ ID NO: 5) and PSA.Rev: […] (SEQ ID NO: 6); Runx 2. For: […] (SEQ ID NO: 7) and Runx 2. Rev: […] (SEQ ID NO: 8), and the threshold cycle (Ct) of tested-gene product from the indicated genotype was normalized to the Ct for cyclophilin A as previously described (18).
(§2) After 8 hours stimulation, OC, arginine and R1881 stimulated PSA and Runx 2II gene expression in human prostate cancer 22Rv1 (FIG. 4A and FIG. 4B) and PC-3 cells (FIG. 4C and FIG. 4D). * indicates a significant difference from control and stimulation at p<0.05 respectively.
To investigate whether the observed ligand-induced PSA and Runx2 gene expression in the prostate cancer cells is due to simulation of GPRC6A, the response to GPRC6A ligands was examined after knock-down of GPRC6A. ERK activity was assessed in 22Rv1 stably transfected with GPRC6A siRNA-514 and compared this response to transfected cells with a random negative control siRNA plasmid, which were used as controls.

[3] = test system: PC-3; test: PSA and Runx 2II gene expression in PC-3 cells (real time RT-PCR); type: cell-based, human; conditions: 8 hours stimulation; for PSA gene expression: FIG. 4C; for Runx 2II gene expression: FIG. 4D
Procedure: as §1, §2

[4] = molecular target: Human GPRC6A, endogenous in human prostate cancer cell lines 22Rv1 and PC-3 (human) (UniProt Q5T6X5); test: cell-based or functional assay
[5] = test system: GPRC6A; test: ERK activation in HEK-293 cells transfected with GPRC6A (Western blot); type: cell-based; conditions: HEK-293 overexpressing GPRC6A; 5 min; calcium 1-20 mM, zinc 0.2-0.8 mM, OC 5-60 ng/ml, arginine 5-30 mM, testosterone-BSA 5-100 nM; FIG. 2A
Procedure: (§3) Briefly, human prostate cancer cells and the cells transfected with GPRC6A will be made quiescent by overnight incubation in serum-free DMEM/F12 containing 0.1% BSA and stimulated with various ligands at different doses. ERK activation will be assessed 5 to 30 minutes after treatment by immunoblotting using anti-phospho-ERK1/2 MAP kinase antibody (Cell Signaling Technology) corrected for the amount of ERK using an anti-ERK1/2 MAP Kinase antibody (Cell Signaling Technology) to measure ERK levels.
(§4) Referring to FIG. 2. […] Here, calcium (1-20 mM), zinc (0.2-0.8 mM), OC (5-60 ng/ml), arginine (5-30 mM), and testosterone-BSA (5-100 nM) are confirmed to be functional ligands for GPRC6A (16-17, 19). […] Calcium (10 mM), zinc (0.2 mM), OC (20 ng/ml), arginine (20 mM), and testosterone-BSA (60 nM) increased phospho-ERK in both of these cells. The HEK cells transfected with GPRC6A or without the plasmid cDNA of GPRC6A or 22Rv1 or PC-3 were incubated in Dulbecco's modified Eagle's medium/F-12 containing 0.1% bovine serum albumin quiescence media and exposed to the extracellular calcium, OC, arginine, or testosterone-BSA at indicated concentrations for 5 min, and ERK activation was determined as described under Materials and Methods. Representative blots are shown, and the results were verified in at least three independent experiments.

[6] = test system: non-transfected HEK-293 cells; test: ERK activation in non-transfected HEK-293 cells (Western blot); type: cell-based; conditions: same ligand concentrations, 5 min
Procedure: as §3, §4

[7] = test system: 22Rv1; test: ERK activation in 22Rv1 prostate cancer cells (Western blot); type: cell-based, human; conditions: for phospho-ERK: 22Rv1 (androgen receptor positive), calcium 10 mM, zinc 0.2 mM, OC 20 ng/ml, arginine 20 mM, testosterone-BSA 60 nM, 5 min, FIG. 2B; for OC and testosterone stimulated phospho-ERK activity: FIG. 5B
Procedure: as §3, §4
(§5) To confirm the importance of GPRC6A signaling in prostate cancer cell line, the response to GPRC6A ligands was accessed after knock-down of GPRC6A using siRNA. For these studies, ERK activity was assessed in 22Rv1 and PC-3 cells stably transfected with GPRC6A siRNA-202 and siRNA-514. These responses were compared control groups consisting of mock-transfected cells and transfected cells with a random negative control siRNA plasmid.

[8] = test system: PC-3; test: ERK activation in PC-3 prostate cancer cells (Western blot); type: cell-based, human; conditions: for phospho-ERK: PC-3 (androgen receptor negative), calcium 10 mM, zinc 0.2 mM, OC 20 ng/ml, arginine 20 mM, testosterone-BSA 60 nM, 5 min, FIG. 2B; for OC and testosterone stimulated phospho-ERK activity: PC-3 transfected with siRNA, FIG. 5B
Procedure: as §3, §4, §5

[9] = test system: GPRC6A; test: siRNA suppression of GPRC6A gene expression (RT-PCR); type: cell-based, human; conditions: compared to controls, FIG. 5A
Description: For GPRC6A knockdown experiments, two short interfering RNAs (siRNAs) (19 nucleotides each) have been designed from the hGPRC6A sequence (NM_148963) (SEQ ID NO: 9). These are GPRC6A siRNA-202: CCAGGAGTGTGTTGGCTTT (SEQ ID NO: 10) and siRNA-514: GCCACAGGTGGGTTATGAA (SEQ ID NO: 11). Two siRNA hairpins were synthesized and cloned into a pSilencer™ 4.1-CMV neo vector (Ambion). A circular pSilencer™ 4.1-CMV neo vector that expresses a hairpin siRNA with limited homology to any known sequence was used as a negative control. The constructs of siRNA duplexes have been stably transfected into human prostate cancer cells using Lipofectamine™ (Invitrogen) and were selected by G418 (Invitrogen). Successful knock down of GPRC6A will be confirmed by assessing RT-PCR analysis of GPRC6A expression.
as §5

[10] = test system: 22Rv1 or PC-3; test: Cell proliferation by hemocytometer cell count; type: cell-based, human; conditions: 22Rv1 or PC-3, 72 h culture, versus control without added ligand; FIG. 3
Procedure: The prostate cancer cell lines 22Rv1, PC-3 and LNcaP and the prostate cell lined RWPE-1 derived from normal prostate were obtained from the American Type Culture Collection (Manassas, Va.). The prostate cells were maintained in RPMI 1640 supplemented with 10% fetal bovine serum (Gibco Life Technologies, Inc.). Cells (10^3 cells/well) were cultured in triplicate in a 96-well flat-bottomed microculture dish using RPMI 1640 containing 10% CFBS in the presence and absence of various concentrations of GPRC6A ligands, including: calcium, amino acids, calcimimetic and OC for 72 h. Cell proliferation was determined by counting cells with a hemocytometer (21).
Now referring to FIG. 3. To determine if GPRC6A ligands enhance prostate cell growth, changes were accessed in cell numbers in 22Rv1 and PC-3 cells exposed to different concentrations of extracellular calcium or OC over a three-day culture period. […] Cell proliferation was determined by counting cells in a hemocytometer method as described in Materials and methods. In all of the above studies, values for relative cell proliferation (expressed as percent of control) represent the mean±SEM of a minimum of three separate experiments. * indicates a significant difference from control and stimulation at p<0.05, respectively.

[11] = test system: 22Rv1; test: Chemotaxis assay of 22Rv1 cells; type: cell-based, human; conditions: migration toward calcium or OC, various concentrations; FIG. 6C
Procedure: The migration of 22Rv1 cells stably expressing negative control siRNA and human GPRC6A-specific siRNA using a previously described chemotaxis assay (22). The migration index was calculated, and was defined as number of cells crossing the filter toward calcium or OC (various concentrations)/number of cells migrating toward medium alone (control). Each experiment was performed at least three times, in duplicate.
Now referring to FIG. 6. To assess whether GPRC6A mediates prostate cancer cells chemotaxis and metastases, the ability of calcium and OC to evoke chemotaxis of human prostate cancer cell 22Rv1 expressing GPRC6A was examined. The ligands of GPRC6A, OC, arginine and R1881 stimulated gene expression of PSA (FIG. A) and Runx2 (FIG. B) were attenuated by GPRC6A siRNA in 22Rv1, human prostate cancer cells. […] The experiments were described in Materials and methods. In all of the above studies, values for relative cell proliferation (expressed as percent of control) represent the mean±SEM of a minimum of three separate experiments.

[12] = 22Rv1 stably transfected with siRNA
[13] = PC-3 stably transfected with siRNA

Chain of UniProt Q5T6X5 (Q5T6X5 19-926): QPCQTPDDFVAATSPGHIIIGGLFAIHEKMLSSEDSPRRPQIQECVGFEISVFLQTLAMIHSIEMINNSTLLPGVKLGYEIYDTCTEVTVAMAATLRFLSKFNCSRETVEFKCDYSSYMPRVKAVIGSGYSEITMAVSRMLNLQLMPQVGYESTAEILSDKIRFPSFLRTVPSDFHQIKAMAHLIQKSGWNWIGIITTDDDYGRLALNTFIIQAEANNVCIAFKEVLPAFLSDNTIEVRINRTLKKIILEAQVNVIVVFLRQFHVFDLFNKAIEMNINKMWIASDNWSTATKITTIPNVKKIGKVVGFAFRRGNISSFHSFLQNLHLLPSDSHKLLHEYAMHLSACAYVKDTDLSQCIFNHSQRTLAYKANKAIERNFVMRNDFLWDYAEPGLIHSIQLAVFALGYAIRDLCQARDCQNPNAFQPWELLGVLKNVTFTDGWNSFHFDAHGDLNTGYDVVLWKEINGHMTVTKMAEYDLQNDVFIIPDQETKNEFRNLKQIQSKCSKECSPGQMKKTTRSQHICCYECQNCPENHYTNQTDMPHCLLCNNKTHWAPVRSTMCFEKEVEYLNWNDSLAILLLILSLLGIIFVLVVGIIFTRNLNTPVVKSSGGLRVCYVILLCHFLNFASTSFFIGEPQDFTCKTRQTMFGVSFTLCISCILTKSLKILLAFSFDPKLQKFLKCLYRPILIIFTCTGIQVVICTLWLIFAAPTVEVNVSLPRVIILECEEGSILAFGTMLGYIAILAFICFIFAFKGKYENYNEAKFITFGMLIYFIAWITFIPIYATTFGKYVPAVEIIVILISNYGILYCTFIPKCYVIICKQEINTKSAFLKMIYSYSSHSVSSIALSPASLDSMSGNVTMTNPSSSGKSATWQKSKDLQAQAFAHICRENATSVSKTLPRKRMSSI

Row | Compound | PSA gene expression [2] | Runx 2II gene expression [2] | PSA gene expression [3] | Runx 2II gene expression [3] | stimulation of ERK activity [5] | ERK response [6] | phospho-ERK [7] | phospho-ERK [8] | other results
1 | COc1cccc(-c2cc(=O)c3ccccc3o2)c1N [PD98059] | – | – | – | – | – | – | – | – | growth-factor-mediated cell proliferation [1]: obliterates
2 | C[C@]1(O)CC[C@H]2[C@@H]3CCC4=CC(=O)CCC4=C3C=C[C@@]21C [R1881, Methytrienolone] | stimulated | stimulated | stimulated | stimulated | – | – | – | – | –
3 | Osteocalcin (purified from bovine bone) (from UniProt P02820 52-100) (ligand) | – | – | – | – | – | – | – | – | cell number after 72 h culture of 22Rv1 and PC-3 cells with OC [4]: 70%
4 | [Cl-].[Cl-].[Zn+2] [zinc, zinc chloride] | – | – | – | – | dose-dependent stimulation | failed to respond | increased | increased | –
5 | GPRC6A siRNA-202: siRNA, 19 nucleotides, CCAGGAGTGTGTTGGCTTT (SEQ ID NO: 10), hairpin cloned into pSilencer 4.1-CMV neo vector | – | – | – | – | – | – | – | – | OC and testosterone stimulated phospho-ERK activity ([7]; 22Rv1 transfected with siRNA): significantly decreased; ERK phosphorylation by extracellular calcium, testosterone, arginine and OC ([7]; 22Rv1 transfected with siRNA, FIG. 5C): failed to stimulate; OC and testosterone stimulated phospho-ERK activity [8]: significantly decreased; mRNA expression of GPRC6A [9, 12]: Decreased; mRNA expression of GPRC6A [9, 13]: Decreased
6 | siRNA-514: siRNA, 19 nucleotides, GCCACAGGTGGGTTATGAA (SEQ ID NO: 11), hairpin cloned into pSilencer 4.1-CMV neo vector | – | – | – | – | – | – | – | – | OC and testosterone stimulated phospho-ERK activity ([7]; 22Rv1 transfected with siRNA): significantly decreased; OC and testosterone stimulated phospho-ERK activity [8]: significantly decreased; ligand-induced mRNA expression of PSA ([2]; 22Rv1 stably transfected with siRNA versus negative control siRNA, FIG. 6A): Significantly decreased; ligand-induced mRNA expression of Runx2 ([2]; 22Rv1 stably transfected with siRNA versus negative control siRNA, FIG. 6B): Significantly decreased; mRNA expression of GPRC6A [9, 12]: Decreased; mRNA expression of GPRC6A [9, 13]: Decreased
7 | N=C(N)NCCC[C@H](N)C(=O)O [arginine, L-Arginine] | stimulated | stimulated | stimulated | stimulated | dose-dependent stimulation | failed to respond | increased | increased | –
8 | OC: Osteocalcin (purified from bovine bone), vitamin-K dependent hormone, GPRC6A ligand (YLDHWLGAPAPYPDPLEPKREVCELNPDCDELADHIGFQEAYRRFYGPV; ends and bridges not checked; cysteine pairing not given here; UniProt P02820 52-100, looked up) | stimulated | stimulated | stimulated | stimulated | dose-dependent stimulation | failed to respond | increased | increased | increase in cell number [10]: ~70%; chemotaxis of 22Rv1 prostate cancer cells [11]: induced the chemotaxis
9 | [Ca+2].[Cl-].[Cl-] [calcium, calcium chloride] | – | – | – | – | dose-dependent stimulation | failed to respond | increased | increased | increase in cell number [10]: ~30%; chemotaxis of 22Rv1 prostate cancer cells [11]: induced the chemotaxis

— US20130324508A1, “BIOMARKER FOR PROSTATE CANCER AND METHOD OF USING THE SAME” (UNIVERSITY OF TENNESSEE RESEARCH FOUNDATION, priority 2012, published 2013)
